Here are results for 16 compounds from patent US5622947A, “Benzoheterocyclic compounds and vasopressin antagonist and oxytocin antagonist compositions containing a benzoheterocyclic compound” (Otsuka Pharmaceutical Co., Ltd., priority 1992, dated 1997).

Assay [1] has as its target T1, V1 Recepter (rat liver plasma membrane preparations) (Rattus norvegicus, UniProt P30560).
T1 construct: rat liver plasma membrane preparations; from tissue; host or cells: rat liver plasma membranes
In words: V1 Recepter binding assay. Conditions: [3H]-Arg-vasopressin 2×10^-10 M, 37° C., 10 minutes, pH 8.0, rat liver plasma membrane. In short, it runs like this:
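Rat liver plasma membranes incubated with [3H]-Arg-vasopressin (2×10^-10 M) and compound (10^-8 to 10^-4 M) for 10 min at 37° C in Tris-HCl pH 8.0 with MgCl2, EDTA, BSA. Bound label separated by glass-fibre filtration, scintillation counted; nonspecific binding with 10^-6 M vasopressin; IC50 reported.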

Assay [2] has as its target T2, V2 Recepter (rat kidney plasma membrane preparations) (Rattus norvegicus, UniProt Q00788).
T2 construct: rat kidney plasma membrane preparations; from tissue; host or cells: rat kidney plasma membranes
In words: V2 Recepter binding assay. To be noted: [3H]-Arg-vasopressin 4×10^-10 M, 4° C., pH 8.0, rat kidney plasma membrane. An outline of the steps: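 Rat kidney plasma membranes incubated with [^3H]-Arg-vasopressin (4×10^-10 M) and test compound (10^-10 to 10^-5 M) for 3 h at 4 °C in 100 mM Tris-HCl pH 8.0 with 5 mM MgCl2, 1 mM EDTA, 0.1% BSA. Bound label by filtration and scintillation counting; nonspecific binding with 10^-6 M vasopressin; IC50 reported.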

Assay [3] concerns the target T3, Oxytocin receptor (uterin muscle membrane preparation) (Rattus norvegicus, UniProt P70536).
T3 construct: was homogenized, which was used as a membrane; from tissue; host or cells: uterine muscle membranes from diethylstilbestrol-treated animals
T3 sequence (P70536 1-388): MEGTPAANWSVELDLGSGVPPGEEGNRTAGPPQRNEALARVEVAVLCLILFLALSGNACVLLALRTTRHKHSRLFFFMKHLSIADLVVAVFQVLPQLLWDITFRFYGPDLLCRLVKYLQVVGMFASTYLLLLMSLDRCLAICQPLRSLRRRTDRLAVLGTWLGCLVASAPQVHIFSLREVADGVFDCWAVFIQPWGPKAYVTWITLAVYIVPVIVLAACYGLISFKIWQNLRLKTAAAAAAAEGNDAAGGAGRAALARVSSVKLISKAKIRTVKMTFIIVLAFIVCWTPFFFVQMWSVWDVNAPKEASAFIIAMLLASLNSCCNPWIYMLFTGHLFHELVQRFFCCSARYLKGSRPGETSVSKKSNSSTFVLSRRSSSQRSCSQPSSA
In words: Oxytocin receptor binding assay. Conditions: [3H]-oxytocin 10^-9 M, 25°, one hour, pH 8.0, uterin muscle membrane, DES-treated. An outline of the steps:
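Rat uterine membranes (0.2 mg; DES-primed day before) incubated 1 h at 25° with [3H]-oxytocin (10^-9 M) and compound (10^-9 to 10^-5 M) in 100 mM Tris-HCl pH 8.0, 5 mM MgCl2, 1 mM EDTA, 0.1% BSA. Filter-bound radioactivity counted; nonspecific with 5×10^-6 M oxytocin; IC50 reported.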

Structures can show the parent of a compound that is named as a salt.

T2 sequence (Q00788 whole entry): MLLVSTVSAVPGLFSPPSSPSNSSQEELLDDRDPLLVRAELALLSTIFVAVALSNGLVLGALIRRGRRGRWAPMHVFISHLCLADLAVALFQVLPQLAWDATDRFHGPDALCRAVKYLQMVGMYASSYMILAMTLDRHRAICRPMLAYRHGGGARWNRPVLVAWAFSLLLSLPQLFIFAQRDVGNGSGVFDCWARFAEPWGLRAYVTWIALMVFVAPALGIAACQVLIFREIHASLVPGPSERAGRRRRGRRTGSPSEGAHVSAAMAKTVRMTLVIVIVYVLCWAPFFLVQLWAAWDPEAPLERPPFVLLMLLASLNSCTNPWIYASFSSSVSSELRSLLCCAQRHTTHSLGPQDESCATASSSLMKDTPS
T1 sequence (P30560 whole entry): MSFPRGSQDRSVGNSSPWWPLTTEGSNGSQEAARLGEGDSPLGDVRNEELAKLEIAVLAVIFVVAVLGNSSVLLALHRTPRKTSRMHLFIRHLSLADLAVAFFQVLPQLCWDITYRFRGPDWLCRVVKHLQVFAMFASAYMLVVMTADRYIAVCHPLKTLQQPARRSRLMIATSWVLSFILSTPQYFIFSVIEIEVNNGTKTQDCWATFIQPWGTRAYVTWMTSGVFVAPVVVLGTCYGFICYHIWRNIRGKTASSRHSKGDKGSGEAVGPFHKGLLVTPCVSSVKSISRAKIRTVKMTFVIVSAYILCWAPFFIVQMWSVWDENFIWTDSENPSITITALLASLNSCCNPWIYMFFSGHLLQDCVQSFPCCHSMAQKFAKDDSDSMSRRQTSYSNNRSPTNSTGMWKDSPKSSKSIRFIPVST

As to `COc1cc(C(=O)N2CCCC(OCC(=O)NCCN3CCCCC3)c3cc(Cl)ccc32)ccc1NC(=O)c1ccccc1Br` (stereo not drawn) [Example 167, 5-[2-(1-Piperidinyl)ethyl]aminocarbonylmethoxy-7-chloro-1-[3-methoxy-4-(2-bromobenzoylamino)benzoyl]-2,3,4,5-tetrahydro-1H-benzoazepine], the concentration for half-maximal inhibition (IC50) (usually the point on the concentration scale where inhibition reaches its midpoint) in assay [1] was 5.5 nM; in assay [2] it was 8.5 nM; in assay [3], 177 nM.
In the same order, the values of `COc1cc(NC(=O)c2ccccc2Cl)ccc1C(=O)N1CCCC(CC(=O)N2CCN(CCO)CC2)c2cc(Cl)ccc21` (single isomer, unassigned) [Example 85, 5-[4-(2-Hydroxyethyl)-1-piperazinyl]-carbonylmethyl-7-chloro-1-[2-methoxy-4-(2-chlorobenzoylamino)benzoyl]-2,3,4,5-tetrahydro-1H-benzoazepine] are 16 nM, 8 nM and 94 nM.
With `COc1cc(NC(=O)c2ccccc2Cl)ccc1C(=O)N1CCCC(CC(=O)NCCN2CCCCC2)c2cc(Cl)ccc21` (stereo not drawn) [Example 156, 5-[2-(1-Piperidinyl)ethyl]aminocarbonylmethyl-7-chloro-1-[2-methoxy-4-(2-chlorobenzoylamino)benzoyl]-2,3,4,5-tetrahydro-1H-benzoazepine], the IC50 in assay [1] turned out to be 5.5 nM; in assay [2], 3 nM; in assay [3], 70 nM.
As to `CCN1CCN(C(=O)COC2CCCN(C(=O)c3ccc(N4CCc5ccccc5C4=O)cc3)c3ccc(Cl)cc32)CC1` (stereo not drawn) [Example 128, 5-(4-Ethyl-1-piperazinyl)carbonylmethoxy-7-chloro-1-[4-(1-oxo-1,2,3,4-tetrahydroisoquinolin-2-yl)benzoyl]-2,3,4,5-tetrahydro-1H-benzoazepine], the IC50 was determined as 14 nM in assay [1], 13 nM in assay [2] and 95 nM in assay [3].
Regarding `COc1cc(C(=O)N2CCCC(OCC(=O)NCCN3CCOCC3)c3cc(Cl)ccc32)ccc1NC(=O)c1ccccc1Br` (stereo not drawn) [Example 168, 5-(2-Morpholinoethyl)aminocarbonylmethoxy-7-chloro-1-[3-methoxy-4-(2-bromobenzoylamino)benzoyl]-2,3,4,5-tetrahydro-1H-benzoazepine], the IC50 in assay [1] is 10 nM; in assay [2], 19 nM; in assay [3], 85 nM.
With `COc1cc(NC(=O)c2ccccc2Cl)ccc1C(=O)N1CCCC(CC(=O)N2CCN(CC#N)CC2)c2cc(Cl)ccc21` (stereo not drawn) [Example 80, 5-(4-Cyanomethyl-1-piperazinyl)carbonylmethyl 7-chloro-1-[2-methoxy-4-(2-chlorobenzoylamino)benzoyl]-2,3,4,5-tetrahydro-1H-benzoazepine], the IC50 in assay [1] was determined as 16 nM; in assay [2], 9 nM; in assay [3] it was 84 nM.
Take `COc1cc(NC(=O)c2ccccc2Cl)ccc1C(=O)N1CCCC(CC(=O)NCCN(C)CCO)c2cc(Cl)ccc21` (stereo not drawn) [Example 160, 5-{2-[N-(2-Hydroxyethyl)-N-methylamino]ethyl}-aminocarbonylmethyl-7-chloro-1-[2-methoxy-4-(2-chlorobenzoylamino)benzoyl]-2,3,4,5-tetrahydro-1H-benzoazepine]: the IC50 in assay [1] came out at 6 nM; in assay [2] it was 3.3 nM; in assay [3], 84 nM.
For `COc1cc(NC(=O)c2ccccc2Cl)ccc1C(=O)N1CCCC(CC(=O)NCc2cnc(C)cn2)c2cc(Cl)ccc21` (stereo not drawn) [Example 134, 5-(5-Methyl-2-pyrazinyl)methylaminocarbonylmethyl-7-chloro-1-[2-methoxy-4-(2-chlorobenzoylamino)benzoyl]-2,3,4,5-tetrahydro-1H-benzoazepine], the values for the IC50 in assay [1], in assay [2] and in assay [3] were 12 nM, 4 nM and 96 nM, respectively.
In the same order, the values of `COc1cc(NC(=O)c2ccccc2Br)ccc1C(=O)N1CCCC(OCCNS(=O)(=O)C(F)(F)F)c2cc(Cl)ccc21` (stereo not drawn) [Example 152, 5-(2-Trifluoromethylsulfonylaminoethoxy)-7-chloro-1-[2-methoxy-4-(2-bromobenzoylamino)benzoyl]-2,3,4,5-tetrahydro-1H-benzoazepine] are 41 nM, 61 nM and 1640 nM.
In the case of `COc1cc(NC(=O)c2ccccc2Cl)ccc1C(=O)N1CCCC(CC(=O)NCCc2cccn2C)c2cc(Cl)ccc21` (stereo not drawn) [Example 154, 5-[2-(1-Methyl-2-pyrrolyl)ethyl]aminocarbonyl-methyl-7-chloro-1-[2-methoxy-4-(2-chlorobenzoylamino)benzoyl]-2,3,4,5-tetrahydro-1H-benzoazepine], the IC50 amounted to 21 nM in assay [1], 12 nM in assay [2] and 197 nM in assay [3].
Turning to `COc1cc(NC(=O)c2ccccc2Cl)ccc1C(=O)N1CCCC(OCCSc2ccncc2)c2cc(Cl)ccc21` (stereo not drawn) [Example 139, 5-[2-(4-Pyridyl)thioethoxy]-7-chloro-1-[2-methoxy-4-(2-chlorobenzoylamino)benzoyl]-2,3,4,5-tetrahydro-1H-benzoazepine], the IC50 in assay [1] was 120 nM; in assay [2], 12 nM; in assay [3], 1000 nM.
Consider `COc1cc(NC(=O)c2ccccc2Cl)ccc1C(=O)N1CCCC(OCCS(=O)(=O)c2ncc[nH]2)c2cc(Cl)ccc21` (stereo not drawn) [Example 145, 5-[2-(2-Imidazolyl)sulfonylethoxy]-7-chloro-1-[2-methoxy-4-(2-chlorobenzoylamino)benzoyl]-2,3,4,5-tetrahydro-1H-benzoazepine], for which the IC50 turned out to be 91 nM in assay [1], 14 nM in assay [2] and 849 nM in assay [3].
`COc1cc(NC(=O)c2ccccc2Cl)ccc1C(=O)N1CCCC(OCCS(=O)(=O)c2ccncc2)c2cc(Cl)ccc21` (stereo not drawn) [Example 142, 5-[2-(4-Pyridyl)sulfonylethoxy]-7-chloro-1-[2-methoxy-4-(2-chlorobenzoylamino)benzoyl]-2,3,4,5-tetrahydro-1H-benzoazepine]: the concentration for half-maximal inhibition (IC50) in assay [1] was 98 nM; in assay [2], 38 nM; in assay [3] it was 1130 nM.
For `CCOC(=O)NCCOC1CCCN(C(=O)c2ccc(NC(=O)c3ccccc3Cl)cc2OC)c2ccc(Cl)cc21` (stereo not drawn) [Example 137, 5-(2-Ethoxycarbonylaminoethoxy)-7-chloro-1-[2-methoxy-4-(2-chlorobenzoylamino)benzoyl]-2,3,4,5-tetrahydro-1H-benzoazepine], the values for the IC50 in assay [1], in assay [2] and in assay [3] were 17 nM, 5 nM and 451 nM, respectively.
Regarding `CCN1CCN(C(=O)CCOC2CCCN(C(=O)c3ccc(N4Cc5ccccc5C4=O)cc3)c3ccc(Cl)cc32)CC1` (stereo not drawn) [Example 132, 5-(4-Ethyl-1-piperazinyl)carbonylethoxy-7-chloro-1-[4-(1-oxoisoindolin-2-yl)benzoyl]-2,3,4,5-tetrahydro-1H-benzoazepine], the values for the IC50 in assay [1], in assay [2] and in assay [3] were 90 nM, 120 nM and 478 nM, respectively.
`C#CCNCCOC1CCCN(C(=O)c2ccc(NC(=O)c3ccccc3Cl)cc2OC)c2ccc(Cl)cc21` (stereo not drawn) [Example 170, 5-(2-Propargylaminoethoxy)-7-chloro-1-[2-methoxy-4-(2-chlorobenzoylamino)benzoyl]-2,3,4,5-tetrahydro-1H-benzoazepine.cndot.hydrochloride]: the IC50 was found to be 24 nM in assay [1], 7 nM in assay [2] and 416 nM in assay [3].
